Results taken from patent publication US20250221948A1, “Complex of 3-hydroxybutyric acid and sodium 3-hydroxybutyrate and preparation method thereof” (priority 2022, published 2025).
Like-named read-outs stand apart in the source and are kept apart here.

Experiments:
Format in all cases: physicochemical
[1] = Determination of moisture contents with KF moisture meter at different time points (hygroscopicity); settings: for moisture content of the complex compared with the acid, the sodium salt and their mixture: summary of Tables 2A-2C; for moisture content (%): temperature 23° C., humidity 92.5%; for hygroscopicity of the solid acid: easy to deliquesce
Source text: For R-3-hydroxybutyric acid, sodium R-3-hydroxybutyrate, Mixture of R-3-hydroxybutyric acid and sodium R-3-hydroxybutyrate, as well as R-3-hydroxybutyric acid·sodium R-3-hydroxybutyrate complex of Examples 1-6, under a certain condition, KF moisture meter was used to determine the moisture contents at different time points.
(§1) For 3-hydroxybutyric acid, sodium 3-hydroxybutyrate, mixture of 3-hydroxybutyric acid and sodium 3-hydroxybutyrate, as well as 3-hydroxybutyric acid·sodium 3-hydroxybutyrate complex of Examples 7-9, under a certain condition, KF moisture meter was used to determine the moisture contents at different time points.
as §1, with “S-3-hydroxybutyric” for “3-hydroxybutyric”, “S-3-hydroxybutyrate,” for “3-hydroxybutyrate,”, “S-3-hydroxybutyrate” for “3-hydroxybutyrate”, “10-12,” for “7-9,”

[2] = Stability of the solids at different temperatures
Protocol: For R-3-hydroxybutyric acid, sodium R-3-hydroxybutyrate, mixture of R-3-hydroxybutyric acid and sodium R-3-hydroxybutyrate, as well as R-3-hydroxybutyric acid·sodium R-3-hydroxybutyrate complex of Examples 1-6, the stability was measured at 60° C., 70° C. and 80° C., and the experimental results are shown in Table 3A.
For 3-hydroxybutyric acid, sodium 3-hydroxybutyrate, mixture of 3-hydroxybutyric acid and sodium 3-hydroxybutyrate, as well as 3-hydroxybutyric acid·sodium 3-hydroxybutyrate complex of Examples 7-9, the stability was measured at 60° C., 70° C. and 80° C., and the experimental results are shown in Table 3B.
For S-3-hydroxybutyric acid, sodium S-3-hydroxybutyrate, mixture of S-3-hydroxybutyric acid and sodium S-3-hydroxybutyrate, as well as S-3-hydroxybutyric acid·sodium S-3-hydroxybutyrate complex of Examples 10-12, the stability was measured at 60° C., 70° C. and 80° C., and the experimental results are shown in Table 3C.

[3] = Stability of the solids at different temperatures; remark: listed apart in the source

SMILES | hygroscopicity of the complex compared with the acid, the sodium salt and their mixture [1] | moisture content of the complex compared with the acid, the sodium salt and their mixture [1] | moisture content (%) ([1]; 30 min) | moisture content (%) ([1]; 1 h) | moisture content (%) ([1]; 2 h) | moisture content (%) ([1]; 4 h) | moisture content (%) ([1]; 6 h) | moisture content (%) ([1]; 7 h) | moisture content (%) ([1]; 11 h) | moisture content (%) ([1]; 22 h) | Stability [2] | stability of the complex [2] | hygroscopicity of the solid acid [1] | Stability ([3]; 30° C.) | Stability ([3]; 50° C.) | Stability ([2]; 60° C.) | Stability ([2]; 70° C.) | Stability ([2]; 80° C.) | Stability ([3]; 40° C.)
CC(O)CC(=O)O (stereo not shown) [3-hydroxybutyric acid • sodium 3-hydroxybutyrate complex] [3-hydroxybutyric acid·sodium 3-hydroxybutyrate] | obviously superior | significantly lower | 0.61% | 1.18% | 2.05% | 3.38% | 4.99% | 5.52% | 8.73% | 17.63% | unchanged | very high |  |  |  |  |  |  | 
CC(O)CC(=O)O (stereo not shown) [3-hydroxybutyric acid] |  |  | 1.32% | 2.37% | 4.15% | 6.59% | 9.68% | 10.71% | 17.33% | 33.51% |  |  | strong hygroscopicity |  |  |  |  |  | 
C[C@@H](O)CC(=O)O [R-3-hydroxybutyric acid • sodium R-3-hydroxybutyrate complex] [R-3-hydroxybutyric acid·sodium R-3-hydroxybutyrate] | obviously superior | significantly lower | 0.54% | 1.02% | 1.96% | 3.26% | 4.89% | 5.39% | 8.65% | 17.45% | unchanged | very high |  |  |  |  |  |  | 
C[C@@H](O)CC(=O)O [R-3-hydroxybutyric acid] |  |  | 1.13% | 2.25% | 3.96% | 6.46% | 9.52% | 10.56% | 17.22% | 33.34% |  |  | strong hygroscopicity |  |  |  |  |  | 
C[C@H](O)CC(=O)O [S-3-hydroxybutyric acid] |  |  | 1.23% | 2.28% | 4.05% | 6.32% | 9.53% | 10.62% | 17.08% | 32.95% |  |  | strong hygroscopicity | unchanged | melted | melted | melted | melted | 
C[C@H](O)CC(=O)O [S-3-hydroxybutyric acid·sodium S-3-hydroxybutyrate] | obviously superior | significantly lower | 0.71% | 1.38% | 1.85% | 3.28% | 4.79% | 5.32% | 8.43% | 16.93% | unchanged | very high |  |  |  |  |  |  | 
CC(O)CC(=O)[O-].[Na+] (stereo not shown) [Sodium 3-hydroxybutyrate, sodium 3-hydroxybutyrate] |  |  | 1.15% | 2.19% | 3.62% | 5.35% | 7.54% | 8.35% | 12.86% | 24.95% | unchanged |  |  |  |  |  |  |  | 
C[C@@H](O)CC(=O)[O-].[Na+] [Sodium R-3-hydroxybutyrate, sodium R-3-hydroxybutyrate] |  |  | 1.04% | 2.01% | 3.39% | 5.23% | 7.35% | 8.04% | 12.68% | 24.68% | unchanged |  |  |  |  |  |  |  | 
C[C@H](O)CC(=O)[O-].[Na+] [Sodium S-3-hydroxybutyrate, sodium S-3-hydroxybutyrate] |  |  | 1.09% | 2.07% | 3.49% | 5.32% | 7.46% | 8.15% | 12.73% | 24.53% |  |  |  | unchanged | unchanged | unchanged | unchanged | unchanged | unchanged
